Data taken from patent US3966773A, “2-Substituted-3,4-epoxycyclopentan-1-ones, and 2-substituted-3,4-epoxycyclopentan-1-ols” (American Cyanamid Company, priority 1975, dated 1976).

System: bronchospasms elicited by histamine
Assay: Bronchodilator activity (Konzett assay), histamine as spasmogenic agent
Format: in vivo, guinea pig
Conditions: Cavia porcellus; three logarithmic cumulative intravenous doses
Method: (§1) Bronchodilator activity was determined in guinea pigs against bronchospasms elicited by intravenous injections of 5-hydroxytryptamine, histamine or acetylcholine by the Konzett procedure. [See J. Lulling, P. Lievens, F. El Sayed and J. Prignot, Arzeimittel-Forschung, 18 995 (1968).]
(§2) In the Table which follows bronchodilater activity for representative compounds of this invention against one or more of the three spasmogenic agents is expressed as an ED50 determined from the results obtained with three logarithemic cumulative intravenous doses.

Row | SMILES | ED50 [mg/kg]
1 | CCCCCC(O)/C=C/[C@H]1CCC(=O)[C@@H]1CCCCCC(CC)C(=O)O (stereo partly drawn) | 0.000145

System: bronchospasms elicited by acetylcholine
Assay: Bronchodilator activity (Konzett assay), acetylcholine as spasmogenic agent
Format: in vivo, guinea pig
Conditions: Cavia porcellus, read-out: Bronchodilator Activity ED50, spasmogenic agent acetylcholine; three logarithmic cumulative intravenous doses; read-out: Bronchodilator Activity ED50, spasmogenic agent choline
Method: as §1, §2

Row | SMILES | ED50 [mg/kg]
2 | CCCCCC(O)/C=C/[C@H]1CCC(=O)[C@@H]1CCCCCC(CC)C(=O)O (stereo partly drawn) | 0.000533
3 | CCCCCC(O)/C=C\[C@H]1CCC(=O)[C@@H]1CCCCCCC(=O)O (relative stereo) [9-oxo-15-hydroxy-13-cis-prostenoic acid, 15-hydroxy-9-oxo-13-cis-prostenoic acid] | 0.00032
4 | CCCC#CC(O)CC[C@H]1CCC(=O)[C@@H]1CCCCCCC(=O)O (stereo partly drawn) [9-oxo-15-hydroxy-16-prostynoic acid] | 0.00032

System: bronchospasms elicited by 5-hydroxytryptamine
Assay: Bronchodilator activity (Konzett assay), 5-hydroxytryptamine as spasmogenic agent
Format: in vivo, guinea pig
Conditions: Cavia porcellus; three logarithmic cumulative intravenous doses
Method: as §1, §2

Row | SMILES | ED50 [mg/kg]
5 | CCCCCC(O)/C=C/[C@H]1CCC(=O)[C@@H]1CCCCCC(CC)C(=O)O (stereo partly drawn) | 0.000329

System: diastolic blood pressure
Assay: Hypotensive activity in anesthetized rats
Format: in vivo, rat (male Wistar strain)
Conditions: Rattus norvegicus; intravenous; dose producing a decrease of about 10 mm. in diastolic blood pressure
Method: This procedure is a modification of the technique described by Pike et al., Prostaglandins, Nobel Symposium 2, Stockholm, June, 1966; p. 165.
Male Wistar strain rats (Royal Hart Farms) averaging approximately 250 grams in weight were fastened to rat boards in a supine position by means of canvas vests and limb ties. The femoral area was infiltrated subcutaneously with lidocaine and the iliac artery and vein were exposed and cannulated. Arterial blood pressure (systolic/diastolic) was recorded using a Statham P23 Db pressure, the animals were anethetized before use with pentobarbital, 30 mg./kg. of body weight intravenously, and also were given hexamethoxium bitartrate, 2 mg./kg. of body weight intravenously. The test compounds were prepared by ultrasonic dispersion in a saline-Tween 80 vehicle. A constant intravenous dose volume of 0.5 ml. was administered and test doses ranged from 0.1 to 10.0 mg./kg. of body weight. Increasing or decreasing doses were selected depending on the dose response obtained. In Table 2B below are set forth the minimal doses required to produce a decrease of about 10 mm. in diastolic blood pressure for typical compounds of the present invention.

Row | SMILES | minimal effective dose [mg/kg]
6 | CCCCCC(O)/C=C/[C@H]1CCC(=O)[C@@H]1CCCCCC(CC)C(=O)O (stereo partly drawn) | < 2
7 | CCCCC[C@@H](O)/C=C/[C@H]1CCC(=O)[C@@H]1CCCCCC(CC)C(=O)O (relative stereo) [2-ethyl-9-oxo-15-epi-hydroxy-13-trans-prostenoic acid] | 2 to 4
8 | CCCCC[C@@H](O)/C=C/[C@H]1CCC(=O)[C@@H]1CCCCCC(C)C(=O)O (relative stereo) [2-methyl-9-oxo-15-epi-hydroxy-13-trans-prostenoic acid] | 2
9 | CCCCC[C@@H](O)/C=C/[C@H]1CCC(=O)[C@@H]1CCCCCC(C(=O)O)c1ccccc1 (relative stereo) [2-phenyl-9-oxo-15-epi-hydroxy-13-trans-prostenoic acid] | 2 to 8
10 | CCCCC[C@@H](O)/C=C/[C@H]1CCC(=O)[C@@H]1CCCCOCC(=O)O (relative stereo) [3-oxa-9-oxo-15-epi-hydroxy-13-trans-prostenoic acid] | 1 to 2
11 | CCCCC[C@@H](O)/C=C/[C@H]1CCC(=O)[C@@H]1CCCCSCC(=O)O (relative stereo) [3-thia-9-oxo-15-epi-hydroxy-13-trans-prostenoic acid] | 2
12 | CCCCCC(O)/C=C/[C@H]1CCC(=O)[C@]1(C)CCCCCCC(=O)O (relative stereo) [9-oxo-8β-methyl-15-hydroxy-13-trans-prostenoic acid] | 2
13 | CCCCC[C@@H](O)/C=C/[C@H]1CCCC(=O)[C@@H]1CCCCCCC(=O)O (relative stereo) [9-oxo-10a-homo-15-epi-hydroxy-13-trans-prostenoic acid] | 2
14 | CCCCCC(O)/C=C/[C@H]1CCC(=O)[C@@H]1CCCCCC(F)C(=O)O (relative stereo) [9-oxo-15-hydroxy-2-fluoro-13-trans-prostenoic acid] | 8
15 | CCCCCC(O)/C=C/[C@H]1CCC(=O)[C@@H]1CCCCCC(C)C(=O)O (relative stereo) [9-oxo-15-hydroxy-2-methyl-13-trans-prostenoic acid] | 2
16 | CCCCCC(O)/C=C/[C@H]1CCC(=O)[C@@H]1CCCCCC(C(=O)O)c1ccccc1 (relative stereo) [9-oxo-15-hydroxy-2-phenyl-13-trans-prostenoic acid] | 8
17 | CCCCCC(O)/C=C/[C@H]1CCC(=O)[C@@H]1CCCCC(C)(C)CC(=O)O (relative stereo) [9-oxo-15-hydroxy-3,3-dimethyl-13-trans-prostenoic acid] | 8
18 | CCCCCC(O)/C=C/[C@H]1CCC(=O)[C@@H]1CCCCOCC(=O)O (relative stereo) [9-oxo-15-hydroxy-3-oxa-13-trans-prostenoic acid] | < 2
19 | CCCCCC(O)/C=C/[C@H]1CCC(=O)[C@@H]1CCCCSCC(=O)O (relative stereo) [9-oxo-15-hydroxy-3-thia-13-trans-prostenoic acid] | 2
20 | CC/C=C\CC(O)/C=C/[C@H]1CCC(=O)[C@@H]1C/C=C\CCCC(=O)O (relative stereo) [9-oxo-15-hydroxy-5-cis,13-trans,17-cis-prostatrienoic acid] | < 2
21 | CCCCCC(O)/C=C/[C@H]1CCC(=O)[C@@H]1CCCCCCCCC(=O)O (relative stereo) [9-oxo-15-hydroxy-7a,7b-bishomo-13-trans-prostenoic acid] | < 8

Row | SMILES | minimal effective dose [mg/kg]
22 | CCCCCC(O)/C=C/[C@H]1CCCC(=O)[C@@H]1CCCCCCC(=O)O (relative stereo) [9-oxo-15-hydroxy-10a-homo-13-trans-prostenoic acid] | 2
23 | CCCCCC(O)/C=C\[C@H]1CCC(=O)[C@@H]1CCCCCCC(=O)O (relative stereo) [9-oxo-15-hydroxy-13-cis-prostenoic acid, 15-hydroxy-9-oxo-13-cis-prostenoic acid] | 2 to 4
24 | CC/C=C\CC(O)/C=C/[C@H]1CCC(=O)[C@@H]1CCCCCCC(=O)O (relative stereo) [9-oxo-15-hydroxy-13-trans,17-cis-prostadienoic acid] | < 2
25 | CCCCC(C)(C)C(O)/C=C/[C@H]1CCC(=O)[C@@H]1CCCCOCC(=O)O (relative stereo) [9-oxo-15-hydroxy-16,16-dimethyl-3-oxa-13-trans-prostenoic acid] | < 2
26 | CCCCC(C)(C)C(O)/C=C/[C@H]1CCC(=O)[C@@H]1CCCCSCC(=O)O (relative stereo) [9-oxo-15-hydroxy-16,16-dimethyl-3-thia-13-trans-prostenoic acid] | < 2
27 | CCCCC(C)(C)C(O)/C=C/[C@H]1CCC(=O)[C@@H]1CCCCCCC(=O)O (relative stereo) [9-oxo-15-hydroxy-16,16-dimethyl-13-trans-prostenoic acid] | < 2
28 | CCCCC(CC)C(O)/C=C/[C@H]1CCC(=O)[C@@H]1CCCCCCC(=O)O (relative stereo) [9-oxo-15-hydroxy-16-ethyl-13-trans-prostenoic acid] | < 8
29 | CCC/C=C/C(O)CC[C@H]1CCC(=O)[C@@H]1CCCCCCC(=O)O (relative stereo) [9-oxo-15-hydroxy-16-trans-prostenoic acid] | < 2
30 | CCCC(C)(C)CC(O)/C=C/[C@H]1CCC(=O)[C@@H]1CCCCCCC(=O)O (relative stereo) [9-oxo-15-hydroxy-17,17-dimethyl-13-trans-prostenoic acid] | 2
31 | CCCCC[C@@H](O)/C=C/[C@H]1CCC(=O)[C@@H]1CCCCOCC(=O)OCC (relative stereo) [Ethyl 3-oxa-9-oxo-15-epi-hydroxy-13-trans-prostenoate] | 0.2
32 | CCCCCC(O)/C=C/[C@H]1CCC(=O)[C@@H]1CCCCOCC(=O)OCC (relative stereo) [Ethyl 9-oxo-15-hydroxy-3-oxa-13-trans-prostenoate] | 0.2
33 | CCCCCC(O)/C=C/[C@H]1CCCC(=O)[C@@H]1CCCCCCC(=O)OCC (relative stereo) [Ethyl 9-oxo-15-hydroxy-10a-homo-13-trans-prostenoate] | 2
34 | CCCCCC(O)CC[C@H]1CCC(=O)[C@@H]1CCCCCC(CC)C(=O)O (stereo partly drawn) [2-ethyl-9-oxo-15-hydroxy-prostanoic acid, 9-oxo-15-hydroxy-2-ethyl-prostanoic acid] | 0.2
35 | CC/C=C\CC(C)(O)/C=C/[C@H]1CCC(=O)[C@@H]1C/C=C\CCCC(=O)O (stereo partly drawn) [9-oxo-15-hydroxy-15-methyl-5-cis,13-trans,17-cis-prostatrienoic acid] | < 2
36 | CCCC#CC(O)CC[C@H]1CCC(=O)[C@@H]1CCCCCCC(=O)O (stereo partly drawn) [9-oxo-15-hydroxy-16-prostynoic acid] | 2
